Data: patent US9932326B2, “Potent and selective inhibitors of hepatitis C virus” (Cocrystal Pharma, LLC, priority 2010, dated 2018)

Legend:
Format in all cases: cell-based
human PBM cells = assay: Cellular toxicity assay, PBM cells
Description: (§1) The toxicity of the compounds was assessed in Vero, human PBM, CEM (human lymphoblastoid), MT-2, and HepG2 cells, as described previously (see Schinazi R. F., Sommadossi J.-P., Saalmann V., Cannon D. L., Xie M.-Y., Hart G. C., Smith G. A. & Hahn E. F. Antimicrob. Agents Chemother. 1990, 34, 1061-67). Cycloheximide was included as positive cytotoxic control, and untreated cells exposed to solvent were included as negative controls. The cytotoxicity IC50 was obtained from the concentration-response curve using the median effective method described previously (see Chou T.-C. & Talalay P. Adv. Enzyme Regul. 1984, 22, 27-55; Belen'kii M. S. & Schinazi R. F. Antiviral Res. 1994, 25, 1-11).

[1] = test system: CEM (human lymphoblastoid) cells; assay: Cellular toxicity assay, CEM cells
Description: as §1

Vero cells = assay: Cellular toxicity assay, Vero cells
Description: as §1

SMILES	Toxicities (μM) PBM (human PBM cells) [µM]	Toxicities (μM) CEM [1] [µM]	Toxicities (μM) VERO (Vero cells) [µM]
COC(=O)N[C@H](C(=O)N1C[C@H](n2cc([Si](C)(C)C)nn2)C[C@H]1c1ncc(-c2ccc(-c3ccc(-c4cnc([C@@H]5C[C@@H](n6cc([Si](C)(C)C)nn6)CN5C(=O)[C@@H](NC(=O)OC)C(C)C)[nH]4)cc3)cc2)[nH]1)C(C)C	>100	25.2	>100
COC(=O)N[C@H](C(=O)N1C[C@H](n2cc(-c3ccccc3)nn2)C[C@H]1c1ncc(-c2ccc(-c3ccc(-c4cnc([C@@H]5C[C@@H](n6cc(-c7ccccc7)nn6)CN5C(=O)[C@@H](NC(=O)OC)C(C)C)[nH]4)cc3)cc2)[nH]1)C(C)C	>100	>100	>100
COC(=O)N[C@H](C(=O)N1C[C@@H](n2cc(COC(C)=O)nn2)C[C@H]1c1ncc(-c2ccc(-c3ccc(-c4cnc([C@@H]5C[C@H](n6cc(COC(C)=O)nn6)CN5C(=O)[C@@H](NC(=O)OC)C(C)C)[nH]4)cc3)cc2)[nH]1)C(C)C	53	13.5	≥100
COC(=O)N[C@H](C(=O)N1C[C@@H](n2cc(C(=O)OC)nn2)C[C@H]1c1ncc(-c2ccc(-c3ccc(-c4cnc([C@@H]5C[C@H](n6cc(C(=O)OC)nn6)CN5C(=O)[C@@H](NC(=O)OC)C(C)C)[nH]4)cc3)cc2)[nH]1)C(C)C	53	13.5	≥100
COC(=O)N[C@H](C(=O)N1C[C@@H](SC)C[C@H]1c1ncc(-c2ccc(-c3ccc(-c4cnc([C@@H]5C[C@H](SC)CN5C(=O)[C@@H](NC(=O)OC)C(C)C)[nH]4)cc3)cc2)[nH]1)C(C)C	15.6	13.3	10.9
COC(=O)N[C@H](C(=O)N1C[C@H](n2ccnn2)C[C@H]1c1ncc(-c2ccc(-c3ccc(-c4cnc([C@@H]5C[C@@H](n6cc([Si](C)(C)C)nn6)CN5C(=O)[C@@H](NC(=O)OC)C(C)C)[nH]4)cc3)cc2)[nH]1)C(C)C	3	16.2	>100
